Measurements taken from PubChem BioAssay (NCI).
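1) Cells in 96-well plates. 2) Compound, 48 h, 5 concentrations. 3) Linear interpolation between surrounding doses. 4) Unreached endpoint = highest concentration. At the GI50, growth is halved. TGI marks complete inhibition of growth.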

Legend:
Test in all cases: NCI-60 cell line screen, 48 h
MCF7 breast = system: MCF7 breast
HL-60(TB) leukemia = system: HL-60(TB) leukemia
UACC-62 melanoma = system: UACC-62 melanoma
HCT-15 colon = system: HCT-15 colon
SN12C renal = system: SN12C renal
OVCAR-5 ovarian = system: OVCAR-5 ovarian
HT29 colon = system: HT29 colon
EKVX NSCLC = system: EKVX NSCLC
DU-145 prostate = system: DU-145 prostate
UO-31 renal = system: UO-31 renal
SNB-75 CNS = system: SNB-75 CNS
SF-539 CNS = system: SF-539 CNS
OVCAR-4 ovarian = system: OVCAR-4 ovarian
K-562 leukemia = system: K-562 leukemia
SNB-19 CNS = system: SNB-19 CNS
SK-MEL-28 melanoma = system: SK-MEL-28 melanoma
COLO 205 colon = system: COLO 205 colon
MDA-MB-435 = system: MDA-MB-435
SK-MEL-5 melanoma = system: SK-MEL-5 melanoma
U251 CNS = system: U251 CNS
786-0 renal = system: 786-0 renal
PC-3 prostate = system: PC-3 prostate
KM12 colon = system: KM12 colon
NCI-H460 lung = system: NCI-H460 lung
SF-268 CNS = system: SF-268 CNS
A549 NSCLC = system: A549 NSCLC
SK-OV-3 ovarian = system: SK-OV-3 ovarian
IGROV1 ovarian = system: IGROV1 ovarian
ACHN renal = system: ACHN renal
HCC-2998 colon = system: HCC-2998 colon
HOP-62 NSCLC = system: HOP-62 NSCLC
MDA-MB-231 breast = system: MDA-MB-231 breast
OVCAR-8 ovarian = system: OVCAR-8 ovarian
SW-620 colon = system: SW-620 colon
CAKI-1 renal = system: CAKI-1 renal
LOX IMVI melanoma = system: LOX IMVI melanoma
TK-10 renal = system: TK-10 renal
A498 renal = system: A498 renal
RPMI-8226 leukemia = system: RPMI-8226 leukemia
BT-549 breast = system: BT-549 breast
MALME-3M melanoma = system: MALME-3M melanoma
NCI-H522 lung = system: NCI-H522 lung
RXF 393 renal = system: RXF 393 renal
SK-MEL-2 melanoma = system: SK-MEL-2 melanoma
NCI/ADR-RES ovarian = system: NCI/ADR-RES ovarian
M14 melanoma = system: M14 melanoma
HCT-116 colon = system: HCT-116 colon
OVCAR-3 ovarian = system: OVCAR-3 ovarian
SF-295 CNS = system: SF-295 CNS
HS 578T breast = system: HS 578T breast
T-47D breast = system: T-47D breast
MOLT-4 leukemia = system: MOLT-4 leukemia
SR leukemia = system: SR leukemia
NCI-H23 lung = system: NCI-H23 lung
CCRF-CEM leukemia = system: CCRF-CEM leukemia

In the case of Cc1cccc(Oc2nccc(-c3c(-c4ccc(F)cc4)ncn3C3CCNCC3)n2)c1C, the GI50 (MCF7 breast) is reported as 6.68 µM, the TGI (MCF7 breast) is reported as greater than 14.4 µM and the GI50 (HL-60(TB) leukemia) is reported as 9.38 µM. For the same compound, the TGI (HL-60(TB) leukemia) was greater than 22.4 µM, the GI50 (UACC-62 melanoma) was 4.94 µM and the TGI (UACC-62 melanoma) was 9.96 µM. It also gave a GI50 (HCT-15 colon) of 8.12 µM, a TGI (HCT-15 colon) greater than 25 µM and a GI50 (SN12C renal) of 9.16 µM. It also gave a TGI (SN12C renal) greater than 25 µM, a GI50 (OVCAR-5 ovarian) of 8.62 µM and a TGI (OVCAR-5 ovarian) greater than 25 µM. The GI50 (HT29 colon) was 4.68 µM, the TGI (HT29 colon) was 10.8 µM and the GI50 (EKVX NSCLC) was greater than 14 µM. The TGI (EKVX NSCLC) was greater than 25 µM, the GI50 (DU-145 prostate) was greater than 11.4 µM and the TGI (DU-145 prostate) was greater than 16.3 µM. For the same compound, the GI50 (UO-31 renal) was 4.97 µM, the TGI (UO-31 renal) was greater than 19.9 µM and the GI50 (SNB-75 CNS) was 5.58 µM. For the same compound, the TGI (SNB-75 CNS) was greater than 17.5 µM, the GI50 (SF-539 CNS) was 4.84 µM and the TGI (SF-539 CNS) was 10.4 µM. It also gave a GI50 (OVCAR-4 ovarian) of 7.9 µM, a TGI (OVCAR-4 ovarian) greater than 25 µM and a GI50 (K-562 leukemia) of 5.68 µM. For the same compound, the TGI (K-562 leukemia) was 16 µM, the GI50 (SNB-19 CNS) was 10.2 µM and the TGI (SNB-19 CNS) was greater than 25 µM. For the same compound, the GI50 (SK-MEL-28 melanoma) was 4.65 µM, the TGI (SK-MEL-28 melanoma) was 9.48 µM and the GI50 (COLO 205 colon) was 4.21 µM. It also gave a TGI (COLO 205 colon) of 8.03 µM, a GI50 (MDA-MB-435) of 6.52 µM and a TGI (MDA-MB-435) greater than 16.1 µM. The GI50 (SK-MEL-5 melanoma) was 3.61 µM, the TGI (SK-MEL-5 melanoma) was 6.92 µM and the GI50 (U251 CNS) was 7.28 µM. For the same compound, the TGI (U251 CNS) was greater than 22.6 µM, the GI50 (786-0 renal) was 8.22 µM and the TGI (786-0 renal) was greater than 18 µM. For the same compound, the GI50 (PC-3 prostate) was 9.94 µM, the TGI (PC-3 prostate) was greater than 23.2 µM and the GI50 (KM12 colon) was 11.2 µM. The TGI (KM12 colon) was greater than 23.8 µM, the GI50 (NCI-H460 lung) was 6.24 µM and the TGI (NCI-H460 lung) was greater than 15 µM. For the same compound, the GI50 (SF-268 CNS) was 13.3 µM, the TGI (SF-268 CNS) was greater than 25 µM and the GI50 (A549 NSCLC) was greater than 14.3 µM. For the same compound, the TGI (A549 NSCLC) was greater than 25 µM, the GI50 (SK-OV-3 ovarian) was 5.72 µM and the TGI (SK-OV-3 ovarian) was 12.5 µM. The GI50 (IGROV1 ovarian) was 6.76 µM, the TGI (IGROV1 ovarian) was greater than 16.7 µM and the GI50 (ACHN renal) was 6.11 µM. It also gave a TGI (ACHN renal) greater than 25 µM, a GI50 (HCC-2998 colon) of 4.22 µM and a TGI (HCC-2998 colon) of 8.96 µM. It also gave a GI50 (HOP-62 NSCLC) of 4.84 µM, a TGI (HOP-62 NSCLC) of 9.56 µM and a GI50 (MDA-MB-231 breast) of 5.42 µM. The TGI (MDA-MB-231 breast) was 13.9 µM, the GI50 (OVCAR-8 ovarian) was 10.7 µM and the TGI (OVCAR-8 ovarian) was greater than 23.5 µM. It also gave a GI50 (SW-620 colon) of 7.81 µM, a TGI (SW-620 colon) greater than 14.3 µM and a GI50 (CAKI-1 renal) of 8.79 µM. It also gave a TGI (CAKI-1 renal) greater than 19.8 µM, a GI50 (LOX IMVI melanoma) of 5.79 µM and a TGI (LOX IMVI melanoma) greater than 15.1 µM. The GI50 (TK-10 renal) was 7.16 µM, the TGI (TK-10 renal) was greater than 16.3 µM and the GI50 (A498 renal) was 6.22 µM. The TGI (A498 renal) was greater than 15.7 µM, the GI50 (RPMI-8226 leukemia) was 7.52 µM and the TGI (RPMI-8226 leukemia) was greater than 18.6 µM. For the same compound, the GI50 (BT-549 breast) was 10.9 µM, the TGI (BT-549 breast) was greater than 19.6 µM and the GI50 (MALME-3M melanoma) was 4.68 µM. The TGI (MALME-3M melanoma) was 9.58 µM, the GI50 (NCI-H522 lung) was 9.84 µM and the TGI (NCI-H522 lung) was greater than 16.2 µM. For the same compound, the GI50 (RXF 393 renal) was 3.53 µM, the TGI (RXF 393 renal) was 9.17 µM and the GI50 (SK-MEL-2 melanoma) was 9.09 µM. The TGI (SK-MEL-2 melanoma) was greater than 15.9 µM, the GI50 (NCI/ADR-RES ovarian) was 11.5 µM and the TGI (NCI/ADR-RES ovarian) was greater than 25 µM. The GI50 (M14 melanoma) was 4.8 µM, the TGI (M14 melanoma) was 9.01 µM and the GI50 (HCT-116 colon) was 7.26 µM. For the same compound, the TGI (HCT-116 colon) was greater than 17.8 µM, the GI50 (OVCAR-3 ovarian) was 14.3 µM and the TGI (OVCAR-3 ovarian) was greater than 25 µM. The GI50 (SF-295 CNS) was 5.56 µM, the TGI (SF-295 CNS) was 14 µM and the GI50 (HS 578T breast) was 8.9 µM. The TGI (HS 578T breast) was greater than 16.2 µM, the GI50 (T-47D breast) was 4.92 µM and the TGI (T-47D breast) was 10.6 µM. For the same compound, the GI50 (MOLT-4 leukemia) was 7.17 µM and the TGI (MOLT-4 leukemia) was 17.6 µM.

Compound C(=C\c1n(Cc2ccc3ccccc3c2)c(-c2ccccc2)c(-c2ccccc2)[n+]1Cc1ccc2ccccc2c1)/c1ccccc1 has a GI50 (HL-60(TB) leukemia) of 0.2 µM, a TGI (HL-60(TB) leukemia) of 0.635 µM and a GI50 (HT29 colon) of 0.142 µM. For the same compound, the TGI (HT29 colon) was 1.09 µM, the GI50 (K-562 leukemia) was 0.222 µM and the TGI (K-562 leukemia) was 5 µM. It also gave a GI50 (ACHN renal) of 0.239 µM, a TGI (ACHN renal) of 0.591 µM and a GI50 (SR leukemia) of 0.313 µM. The TGI (SR leukemia) was greater than 100 µM, the GI50 (NCI-H23 lung) was 0.257 µM and the TGI (NCI-H23 lung) was 0.919 µM. It also gave a GI50 (CCRF-CEM leukemia) of 0.406 µM, a TGI (CCRF-CEM leukemia) of 2.09 µM and a GI50 (RPMI-8226 leukemia) of 0.0758 µM. It also gave a TGI (RPMI-8226 leukemia) of 0.621 µM, a GI50 (RXF 393 renal) of 0.26 µM and a TGI (RXF 393 renal) of 1.14 µM. For the same compound, the GI50 (MOLT-4 leukemia) was 0.292 µM and the TGI (MOLT-4 leukemia) was 1.26 µM.
